In US12527325B2, “Pesticidally active diazine-amide compounds” (SYNGENTA CROP PROTECTION AG, priority 2019, dated 2026):

Legend:
Format in all cases: in vivo
Diabrotica balteata = assay: Example B1: Diabrotica balteata (Corn Root Worm); details: 96 h, application rate of 200 ppm, sprayed maize sprouts, L2 larvae, 4 days after infestation, read-out: control in at least one of the two categories (mortality or growth inhibition)
Method: Example B1: Diabrotica balteata (Corn Root Worm)
Maize sprouts placed onto an agar layer in 24-well microtiter plates were treated with aqueous test solutions prepared from 10′000 ppm DMSO stock solutions by spraying. After drying, the plates were infested with L2 larvae (6 to 10 per well). The samples were assessed for mortality and growth inhibition in comparison to untreated samples 4 days after infestation.

Chilo suppressalis = assay: Example B4: Chilo suppressalis (Striped Rice Stemborer); details: 144 h, application rate of 200 ppm, artificial diet, L2 larvae, 6 days after infestation, read-out: control in at least one of the three categories (mortality, anti-feedant or growth inhibition)
How it was run: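 Artificial diet was treated with aqueous dilutions made from 10'000 ppm DMSO stocks, dried, then infested with L2 larvae at 6–8 per well. Mortality, antifeedant effect and growth inhibition were assessed against untreated samples 6 days after infestation.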

Plutella xylostella [1] = assay: Example B5: Plutella xylostella (Diamond Back Moth); details: 192 h, application rate of 200 ppm, 24-well artificial diet, eggs, 8 days after infestation, read-out: control in at least one of the two categories (mortality or growth inhibition)
Method: Example B5: Plutella xylostella (Diamond Back Moth)
24-well microtiter plates with artificial diet were treated with aqueous test solutions prepared from 10′000 ppm DMSO stock solutions by pipetting. After drying, Plutella eggs were pipetted through a plastic stencil onto a gel blotting paper and the plate was closed with it. The samples were assessed for mortality and growth inhibition in comparison to untreated samples 8 days after infestation.

Spodoptera littoralis [2] = assay: Example B9: Spodoptera littoralis (Egyptian Cotton Leaf Worm), cotton leaf disc spray; details: foliar, 72 h, application rate of 200 ppm, sprayed cotton leaf discs, L1 larvae, 3 days after infestation, read-out: control in at least one of the three categories (mortality, anti-feedant or growth inhibition)
Spodoptera littoralis [3] = assay: Example B10: Spodoptera littoralis (Egyptian Cotton Leaf Worm), uptake by lettuce roots from agar; details: 144 h, test rate of 12.5 ppm, compound in agar absorbed by lettuce roots, eggs, 6 days after infestation, read-out: control in at least one of the three categories (mortality, anti-feedant, or growth inhibition)
Text: Example B10: Spodoptera littoralis (Egyptian Cotton Leaf Worm)
Test compounds were applied by pipette from 10′000 ppm DMSO stock solutions into 24-well plates and mixed with agar. Lettuce seeds were placed onto the agar and the multi well plate was closed by another plate which contained also agar. After 7 days the compound was absorbed by the roots and the lettuce grew into the lid plate. The lettuce leaves were then cut off into the lid plate. Spodoptera eggs were pipetted through a plastic stencil onto a humid gel blotting paper and the lid plate was closed with it. The samples were assessed for mortality, anti-feedant effect and growth inhibition in comparison to untreated samples 6 days after infestation.

Plutella xylostella [4] = assay: Example B12: Plutella xylostella (Diamondback Moth), 96-well artificial diet; details: 216 h, application rate of 500 ppm, eggs, 9 days after infestation
Method: Example B12: Plutella xylostella (Diamondback Moth)
96-well microtiter plates containing artificial diet were treated with aqueous test solutions, prepared from 10′000 ppm DMSO stock solutions, by a liquid handling robot. After drying, eggs (˜30 per well) were infested onto a netted lid which was suspended above the diet. The eggs hatch and L1 larvae move down to the diet. The samples were assessed for mortality 9 days after infestation.

CC(NC(=O)c1cc(C(F)(F)F)cc(C(F)(F)C2CC2)c1)c1nccnc1-c1ncc(C2CC2)cn1 (stereo not drawn) [P39, 3-[cyclopropyl(difluoro)methyl]-N-[1-[3-(5-cyclopropylpyrimidin-2-yl)pyrazin-2-yl]ethyl]-5-(trifluoromethyl)benzamide]
≥ 80%: percent control (mortality or growth inhibition) at 200 ppm (Diabrotica balteata) | percent control (mortality, anti-feedant effect or growth inhibition) at 200 ppm (Chilo suppressalis) | percent control (mortality or growth inhibition) at 200 ppm (Plutella xylostella [1]) | percent control (mortality, anti-feedant effect or growth inhibition) at 200 ppm (Spodoptera littoralis [2]) | percent control (mortality, anti-feedant effect or growth inhibition) at 12.5 ppm (Spodoptera littoralis [3]) | mortality at 500 ppm (Plutella xylostella [4])
